Experiment [1] deals with HPK1 (Homo sapiens (Human), UniProt Q92918). Nature of the experiment: HPK1 Lantha binding assay ("Lanth"). Particulars: binding assays; Morrison Ki fit. An outline of the steps:
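TR-FRET binding competition using 2 nM HPK1, 2 nM Eu-anti-GST antibody and 15 nM Tracer222 at 23 °C. Compound was incubated 1 h with enzyme and antibody, then 1 h after tracer addition, with an 11-point 5-fold dilution series. Ki obtained from a Morrison fit that corrects for tracer concentration and Kd.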

The subject of experiment [2] is primary human pan T cells. Nature of the experiment: Human T-cell IL2 induction assay. The class given is cell-based. Particulars: IL-2, anti-CD3/anti-CD28 stimulated T cells; assayed concentration 8.3 μM. Here is the method:
Example B3: Human T-Cell IL2 Induction Assay
Anti-CD3 and anti-CD28 activates TCR signaling in primary human pan T cells leading to IL-2 promoter induction. Secreted IL-2 in cell culture supernatant is detected by electrochemiluminescence using a capture antibody against IL-2 and an anti-IL-2 antibody labeled with SULFO-tag.
See www.mesoscale.com for additional electrochemiluminescence technology information.
Incubate primary human pan T cells with varying concentrations of test compounds for 30 minutes in a humidified incubator at 37° C. and 5% CO2. Transfer cells to a plate pre-coated with a fixed concentration of anti-human CD3 (determined separately for each donor lot) and add soluble anti-human CD28 (final concentration=1 μg/ml). Stimulate cells in a humidified incubator at 37° C. and 5% CO2 for 4 hours. Transfer 25 μl of supernatant to a MSD single spot plate pre-coated with an anti-human IL-2 antibody. Incubate MSD plate overnight at 4° C. with gentle shaking. Wash MSD plate 4× with wash buffer. Add SULFO-tagged detection antibody at a 1:50 dilution and incubate at room temperature shaking for 2 hours. Wash MSD plate 4× with wash buffer and add […] 2×MSD read buffer. Read on an MSD instrument. Normalize data to stimulated/untreated controls to calculate % activity at each concentration of compound.
• Frozen Primary Human Pan-T Cells (StemCell Technologies #70024) • anti-human CD3 (OKT3 clone) (eBioscience #16-0037-81) • anti-human CD28 (CD28.2 clone) (BD #555725) • 96-well Human IL-2 tissue culture kit (MSD #K151AHB-4) Instrumentation: • Biomek FX for liquid handling (Beckman Coulter) • MSD SECTOR S 600 (Meso Scale Discovery)
Exemplary compounds of Formula (I) were tested in the human T-cell IL-2 induction assays. The % increase measured for IL-2 in cells treated by the test compounds relative to untreated cells are provided in Table B2 for certain compounds.

As a reminder, the Ki is a measure of affinity in units of concentration, obtained from inhibition or displacement.

Sequence of HPK1 (Q92918 1-346 limits assumed): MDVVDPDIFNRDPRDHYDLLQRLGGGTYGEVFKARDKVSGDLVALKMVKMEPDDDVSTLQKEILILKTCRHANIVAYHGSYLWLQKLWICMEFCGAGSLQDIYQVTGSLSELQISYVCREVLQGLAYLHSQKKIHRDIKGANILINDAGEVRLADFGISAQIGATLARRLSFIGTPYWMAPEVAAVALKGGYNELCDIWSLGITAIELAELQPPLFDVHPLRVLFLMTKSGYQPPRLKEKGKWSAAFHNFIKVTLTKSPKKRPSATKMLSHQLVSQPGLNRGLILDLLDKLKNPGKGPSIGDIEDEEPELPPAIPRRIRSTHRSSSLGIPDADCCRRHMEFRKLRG

`CN(C)C(=O)c1c(N)ccc(-c2cnc3c(c2Cl)[C@]2(CC[C@@H](CO)C2)CN3)c1F` [Compound 259c, 6-Amino-3-((1R,3R)-4′-chloro-3-(hydroxymethyl)-1′,2′-dihydrospiro[cyclopentane-1,3′-pyrrolo[2,3-b]pyridin]-5′-yl)-2-fluoro-N,N-dimethylbenzamide] gave an inhibition constant (Ki) in experiment [1] of 3 nM. In addition, the “% IL relative to untreated cells” value in experiment [2] is 604%.
